Test results: ChEMBL document CHEMBL1201862, “PubChem BioAssay data set” (2004)
Activity calls are given as the source filed them.

Experiments:
[1] = microbe, parasite or virus in culture; type: functional; settings: Mycobacterium tuberculosis
[2] = Vero cell cytotoxicity, dose response, cytotoxicity control for M. tuberculosis growth inhibitor project, Vero cells, purified and synthesized compounds, set 5 (AID 504909); type: functional; settings: Mycobacterium tuberculosis
[3] = Vero cell cytotoxicity, dose response, cytotoxicity control for M. tuberculosis growth inhibitor project, Vero cells, purified and synthesized compounds, set 4 (AID 504854); type: functional; settings: Mycobacterium tuberculosis
[4] = THP-1 cell cytotoxicity, cytotoxicity control, set 4 (AID 504911); type: functional; settings: Mycobacterium tuberculosis
[5] = A Cell Based Secondary Assay to Explore Cytotoxicity in HepG2 Cells of Compounds that Modulate Mycobacterium tuberculosis in Media Containing Glycerol versus Media without Glycerol (2).; type: functional
[6] = A Cell Based Secondary Assay to Explore Cytotoxicity in THP-1 Cells of Compounds that Modulate Mycobacterium tuberculosis in Media Containing Glycerol versus Media without Glycerol (2).; type: functional
[7] = Luminescence Cell-Based Dose Retest to Confirm Inhibitors of Cancer Stem Cells. [Related pubchem assays (depositor defined):AID2717, AID2721]; type: functional; settings: Homo sapiens
[8] = Vero cell cytotoxicity, cytotoxicity control for M. tuberculosis inhibitor project, purified and synthesized samples, set 3 (AID 504684); type: functional
[9] = cytotoxicity in HMLE control line with eGFP shRNA, dose response, counter-screen for HMLE_sh_ECad selective toxicity project, cell-based, HMLE_sh_eGFP, luminescence (AID 463074); type: functional, Homo sapiens;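 also: HMLE human mammary epithelial cells expressing control shRNA against eGFP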
[10] = HepG2 cell cytotoxicity, cytotoxicity control, set 4 (AID 504910); type: functional; settings: Mycobacterium tuberculosis
[11] = THP-1 cell cytotoxicity, dose response, cytotoxicity control, set 3 (AID 504852); type: functional; settings: Mycobacterium tuberculosis
[12] = HepG2 cell cytotoxicity, dose response, cytotoxicity control, set 3 (AID 504853); type: functional; settings: Mycobacterium tuberculosis
[13] = biological target: Neuropeptides B/W receptor type 1 (Homo sapiens, UniProt P48145); test: GPR7 antagonist potency, late-stage follow-up, cell-based, fluorescence, dose response, set 6 (AID 588583); type: functional
[14] = biological target: Melanin-concentrating hormone receptor 1 (Homo sapiens, UniProt Q99705); test: Late-stage fluorescence-based counterscreen for antagonists of the G-protein coupled receptor 7 (GPR7): cell-based dose response assay to identify antagonists of the melanin-concentrating hormone receptor 1 (MCHR1) Set 6.; type: functional
[15] = SAR analysis of small molecule activators of Apaf-1 using a LZ-Caspase-9/Caspase-3 Fluorescent Selectivity assay - Set 2.; type: functional; settings: read-out: EC50_Mean
[16] = biological target: T1, Apoptotic protease-activating factor 1 (Homo sapiens, UniProt O14727); test: SAR analysis of small molecule Activators of Apaf-1 in a Fluorescent assay - set 2.; type: functional; settings: read-out: EC50_Mean
T1 sequence (O14727 whole entry): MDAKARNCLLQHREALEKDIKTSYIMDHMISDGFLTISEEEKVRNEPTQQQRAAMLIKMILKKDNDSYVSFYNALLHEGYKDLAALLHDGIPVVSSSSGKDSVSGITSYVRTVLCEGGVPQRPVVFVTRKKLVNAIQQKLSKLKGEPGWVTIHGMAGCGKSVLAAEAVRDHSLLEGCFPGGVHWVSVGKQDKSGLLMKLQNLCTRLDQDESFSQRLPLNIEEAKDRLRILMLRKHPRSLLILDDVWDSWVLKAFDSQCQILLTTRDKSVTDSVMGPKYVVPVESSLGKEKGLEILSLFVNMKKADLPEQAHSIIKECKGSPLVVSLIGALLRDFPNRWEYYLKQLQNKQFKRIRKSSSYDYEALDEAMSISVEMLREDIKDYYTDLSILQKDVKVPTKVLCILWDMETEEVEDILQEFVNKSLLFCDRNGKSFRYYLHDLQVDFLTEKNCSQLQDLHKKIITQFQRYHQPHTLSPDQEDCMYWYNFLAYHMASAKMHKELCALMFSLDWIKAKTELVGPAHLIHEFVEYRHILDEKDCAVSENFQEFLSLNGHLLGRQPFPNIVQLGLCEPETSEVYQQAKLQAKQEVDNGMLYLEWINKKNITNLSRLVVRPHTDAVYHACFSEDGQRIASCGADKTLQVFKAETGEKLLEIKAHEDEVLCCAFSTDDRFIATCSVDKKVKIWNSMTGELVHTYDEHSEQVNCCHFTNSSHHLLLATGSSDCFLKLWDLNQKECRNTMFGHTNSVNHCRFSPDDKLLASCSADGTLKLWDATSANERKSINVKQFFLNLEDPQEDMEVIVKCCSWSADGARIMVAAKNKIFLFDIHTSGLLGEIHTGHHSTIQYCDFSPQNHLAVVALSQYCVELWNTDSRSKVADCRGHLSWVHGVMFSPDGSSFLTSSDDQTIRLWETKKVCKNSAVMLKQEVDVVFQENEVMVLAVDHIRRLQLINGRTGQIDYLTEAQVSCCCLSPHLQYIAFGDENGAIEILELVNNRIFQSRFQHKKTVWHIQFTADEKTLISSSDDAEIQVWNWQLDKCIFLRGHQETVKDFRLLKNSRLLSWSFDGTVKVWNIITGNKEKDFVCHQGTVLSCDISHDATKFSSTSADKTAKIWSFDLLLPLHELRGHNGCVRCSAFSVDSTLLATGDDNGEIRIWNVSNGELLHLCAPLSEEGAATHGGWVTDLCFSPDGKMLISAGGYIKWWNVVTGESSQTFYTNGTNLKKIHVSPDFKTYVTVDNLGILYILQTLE

[17] = biological target: T2, DNA dC->dU-editing enzyme APOBEC-3G (Homo sapiens, UniProt Q9HC16); test: SAR analysis of small molecule inhibitors of APOBEC3G DNA Deaminase via a fluorescence-based single-stranded DNA deaminase assay - Set 2.; type: functional; settings: read-out: IC50_Mean
ORF 73 = ORF 73 (Human herpesvirus 8, UniProt O40947); test: inhibitors of C-LANA binding to LBS DNA, dose response, biochemical, fluorescence polarization, cherry-picked samples (AID 504725); parameters: species or system Human gammaherpesvirus 8;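 also: fluorescence polarization of a labeled DNA duplex reporting LANA DNA binding; potency is for inhibitors that block LANA binding to the DNA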
Ephrin type-A receptor 4 = Ephrin type-A receptor 4 (Mus musculus, UniProt Q03137); test: inhibitors of EphA4 binding to KYL peptide, primary screen, biochemical, colorimetric, mouse EphA4 (AID 689); type: functional
[18] = biological target: Bifunctional protein GlmU (Mycobacterium tuberculosis, UniProt P9WMN3); test: Inhibitors of Mycobacterial Glucosamine-1-phosphate acetyl transferase (GlmU). Secondary screen.; parameters: species or system Mycobacterium tuberculosis H37Rv
Troponin, cardiac muscle = Troponin, cardiac muscle (Homo sapiens, UniProt P19429+P45379+P63316); test: inhibitors of cardiac thin filament calcium sensitivity, dose response, biochemical, fluorescence, cardiac regulated thin filaments, triplicate IC50 (AID 504742); type: protein-complex assay
[19] = biological target: 1-phosphatidylinositol 4,5-bisphosphate phosphodiesterase gamma-1 (Homo sapiens, UniProt P19174); test: Counterscreen for inhibitors of phospholipase C isozymes (PLC-B3): Fluorescence-based biochemical high throughput dose response assay to identify inhibitors of phospholipase C isozymes (PLC-gamma1).
[20] = biological target: Protein-tyrosine kinase 2-beta (Homo sapiens, UniProt Q14289);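 also: potency of inhibitors of PYK2 kinase phosphorylation of poly-GT substrate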
[21] = biological target: Intestinal-type alkaline phosphatase (Homo sapiens, UniProt P09923); test: inhibition of human intestinal alkaline phosphatase – biochemical, dose response (AID 488876); type: functional
[22] = biological target: T3, Histone-lysine N-methyltransferase NSD2 (Homo sapiens, UniProt O96028); type: biochemical
T3 sequence (O96028 whole entry): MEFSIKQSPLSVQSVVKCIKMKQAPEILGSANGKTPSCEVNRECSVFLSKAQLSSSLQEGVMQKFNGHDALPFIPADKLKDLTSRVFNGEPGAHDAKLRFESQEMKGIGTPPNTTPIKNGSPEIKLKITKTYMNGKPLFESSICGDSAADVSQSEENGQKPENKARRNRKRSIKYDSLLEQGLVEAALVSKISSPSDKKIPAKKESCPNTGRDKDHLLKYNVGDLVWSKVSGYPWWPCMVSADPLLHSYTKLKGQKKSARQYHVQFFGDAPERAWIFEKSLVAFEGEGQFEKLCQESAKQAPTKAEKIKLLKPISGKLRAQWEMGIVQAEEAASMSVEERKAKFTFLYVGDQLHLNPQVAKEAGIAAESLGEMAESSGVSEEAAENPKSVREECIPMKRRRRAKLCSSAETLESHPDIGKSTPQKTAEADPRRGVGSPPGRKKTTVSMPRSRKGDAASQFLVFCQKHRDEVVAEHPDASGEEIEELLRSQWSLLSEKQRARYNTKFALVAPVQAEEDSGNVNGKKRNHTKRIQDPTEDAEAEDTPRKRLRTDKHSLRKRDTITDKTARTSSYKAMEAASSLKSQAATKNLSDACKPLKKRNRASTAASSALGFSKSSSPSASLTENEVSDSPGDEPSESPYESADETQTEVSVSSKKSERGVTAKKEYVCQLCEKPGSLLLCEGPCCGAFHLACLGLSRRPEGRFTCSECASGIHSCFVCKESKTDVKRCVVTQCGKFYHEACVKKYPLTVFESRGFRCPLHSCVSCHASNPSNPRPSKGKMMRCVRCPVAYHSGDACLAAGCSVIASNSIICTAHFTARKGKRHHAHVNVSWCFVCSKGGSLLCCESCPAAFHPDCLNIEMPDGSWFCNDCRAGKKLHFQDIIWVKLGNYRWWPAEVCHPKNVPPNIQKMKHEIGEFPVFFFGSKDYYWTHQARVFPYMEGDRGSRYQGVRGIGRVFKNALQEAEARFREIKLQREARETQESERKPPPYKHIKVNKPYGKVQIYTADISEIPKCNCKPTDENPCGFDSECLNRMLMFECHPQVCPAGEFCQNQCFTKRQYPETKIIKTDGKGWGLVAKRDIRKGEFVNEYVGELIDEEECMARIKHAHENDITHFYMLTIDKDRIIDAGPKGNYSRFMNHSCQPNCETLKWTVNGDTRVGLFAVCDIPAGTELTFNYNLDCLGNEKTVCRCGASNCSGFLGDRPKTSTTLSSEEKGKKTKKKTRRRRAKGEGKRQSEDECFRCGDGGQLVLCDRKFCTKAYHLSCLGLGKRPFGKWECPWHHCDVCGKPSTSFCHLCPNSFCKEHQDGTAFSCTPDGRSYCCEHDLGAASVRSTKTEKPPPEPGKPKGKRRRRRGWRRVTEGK

[23] = biological target: T4, Alkaline phosphatase, tissue-nonspecific isozyme (Homo sapiens, UniProt P05186); test: TNAP enzyme inhibition by screening hits, dose response, selectivity assay for mouse IAP inhibitor project, biochemical, human TNAP, uHTS hits (AID 488906); type: functional
T4 sequence (P05186 whole entry): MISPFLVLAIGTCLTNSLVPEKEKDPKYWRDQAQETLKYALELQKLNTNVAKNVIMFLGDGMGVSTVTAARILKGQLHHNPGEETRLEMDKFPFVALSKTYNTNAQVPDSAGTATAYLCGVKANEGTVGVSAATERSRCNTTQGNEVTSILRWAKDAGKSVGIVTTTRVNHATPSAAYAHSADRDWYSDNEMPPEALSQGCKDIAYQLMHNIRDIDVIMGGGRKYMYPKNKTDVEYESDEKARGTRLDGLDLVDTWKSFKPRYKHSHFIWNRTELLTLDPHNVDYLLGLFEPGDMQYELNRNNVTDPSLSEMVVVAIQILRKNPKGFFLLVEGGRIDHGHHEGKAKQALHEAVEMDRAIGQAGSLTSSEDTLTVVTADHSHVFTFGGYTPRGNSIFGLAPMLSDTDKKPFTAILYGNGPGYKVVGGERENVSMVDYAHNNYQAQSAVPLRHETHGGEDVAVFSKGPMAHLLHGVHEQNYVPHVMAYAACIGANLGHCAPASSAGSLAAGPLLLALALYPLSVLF

[24] = biological target: T5, DNA dC->dU-editing enzyme APOBEC-3A (Homo sapiens, UniProt P31941); test: SAR analysis of small molecule inhibitors of APOBEC3A DNA Deaminase via a fluorescence-based single-stranded DNA deaminase assay.; type: functional; settings: read-out: IC50_Mean
[25] = biological target: 1-phosphatidylinositol 4,5-bisphosphate phosphodiesterase beta-3 (Homo sapiens, UniProt Q01970); test: Fluorescence-based biochemical high throughput dose response assay to identify inhibitors of phospholipase C isozymes (PLC-B3).
[26] = Artemis endonuclease inhibitor potency, dose response, biochemical, fluorescence intensity (AID 720701); type: functional;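 also: Artemis endonuclease enzyme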
[27] = biological target: T2, DNA dC->dU-editing enzyme APOBEC-3G; test: APOBEC3G deaminase inhibitors, SAR follow-up, biochemical, fluorescence, single-stranded DNA substrate (AID 602136); type: functional; settings: read-out: IC50_Mean
[28] = biological target: Intestinal-type alkaline phosphatase (Mus musculus, UniProt P24822); test: PubChem AID 488785; type: functional
[29] = biological target: T5, DNA dC->dU-editing enzyme APOBEC-3A; test: SAR analysis of small molecule inhibitors of APOBEC3A DNA Deaminase via a fluorescence-based single-stranded DNA deaminase assay - Set 2.; type: functional; settings: read-out: IC50_Mean

T5 sequence (P31941 whole entry): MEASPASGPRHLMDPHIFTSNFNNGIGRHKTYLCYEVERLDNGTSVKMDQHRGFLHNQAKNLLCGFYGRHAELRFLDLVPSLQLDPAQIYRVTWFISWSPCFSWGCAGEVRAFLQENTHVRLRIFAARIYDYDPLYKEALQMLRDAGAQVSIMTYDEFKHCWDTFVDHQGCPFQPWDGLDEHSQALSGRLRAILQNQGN
T2 sequence (Q9HC16 whole entry): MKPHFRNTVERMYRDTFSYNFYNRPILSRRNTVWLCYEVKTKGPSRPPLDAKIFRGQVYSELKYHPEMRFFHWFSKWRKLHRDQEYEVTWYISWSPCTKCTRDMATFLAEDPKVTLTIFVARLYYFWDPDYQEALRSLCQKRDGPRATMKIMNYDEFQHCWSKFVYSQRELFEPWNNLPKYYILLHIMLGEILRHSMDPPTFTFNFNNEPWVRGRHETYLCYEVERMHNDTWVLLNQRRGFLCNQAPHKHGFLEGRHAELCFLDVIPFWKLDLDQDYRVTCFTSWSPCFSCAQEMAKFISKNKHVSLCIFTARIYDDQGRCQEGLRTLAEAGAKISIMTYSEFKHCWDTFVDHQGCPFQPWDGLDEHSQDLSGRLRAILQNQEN
Sequence of Ephrin type-A receptor 4 (Q03137 whole entry): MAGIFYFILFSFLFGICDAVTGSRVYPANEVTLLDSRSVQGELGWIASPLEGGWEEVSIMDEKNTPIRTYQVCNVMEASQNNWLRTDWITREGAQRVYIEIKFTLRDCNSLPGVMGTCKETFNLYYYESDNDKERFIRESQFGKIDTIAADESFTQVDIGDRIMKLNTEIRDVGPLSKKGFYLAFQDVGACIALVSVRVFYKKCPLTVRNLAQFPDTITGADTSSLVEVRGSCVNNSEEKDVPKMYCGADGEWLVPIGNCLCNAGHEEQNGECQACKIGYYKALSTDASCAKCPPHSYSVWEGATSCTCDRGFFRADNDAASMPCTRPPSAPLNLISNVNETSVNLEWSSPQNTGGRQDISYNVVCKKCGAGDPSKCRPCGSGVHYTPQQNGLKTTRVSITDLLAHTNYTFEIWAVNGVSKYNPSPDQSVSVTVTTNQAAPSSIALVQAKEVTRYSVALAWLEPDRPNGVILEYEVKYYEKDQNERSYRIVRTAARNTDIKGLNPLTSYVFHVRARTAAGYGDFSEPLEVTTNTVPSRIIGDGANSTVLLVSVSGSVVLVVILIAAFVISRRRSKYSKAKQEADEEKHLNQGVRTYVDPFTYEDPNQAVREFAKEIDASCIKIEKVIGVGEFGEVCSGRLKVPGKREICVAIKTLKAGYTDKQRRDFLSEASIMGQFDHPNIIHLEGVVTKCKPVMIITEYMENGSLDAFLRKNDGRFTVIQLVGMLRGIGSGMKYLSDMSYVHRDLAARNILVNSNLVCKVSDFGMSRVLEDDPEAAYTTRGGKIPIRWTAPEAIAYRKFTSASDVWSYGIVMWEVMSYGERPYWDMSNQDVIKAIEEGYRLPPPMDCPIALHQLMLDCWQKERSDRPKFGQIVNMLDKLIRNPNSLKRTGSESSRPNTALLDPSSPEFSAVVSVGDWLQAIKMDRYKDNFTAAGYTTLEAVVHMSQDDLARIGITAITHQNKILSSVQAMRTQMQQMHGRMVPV
Sequence of ORF 73 (O40947 whole entry): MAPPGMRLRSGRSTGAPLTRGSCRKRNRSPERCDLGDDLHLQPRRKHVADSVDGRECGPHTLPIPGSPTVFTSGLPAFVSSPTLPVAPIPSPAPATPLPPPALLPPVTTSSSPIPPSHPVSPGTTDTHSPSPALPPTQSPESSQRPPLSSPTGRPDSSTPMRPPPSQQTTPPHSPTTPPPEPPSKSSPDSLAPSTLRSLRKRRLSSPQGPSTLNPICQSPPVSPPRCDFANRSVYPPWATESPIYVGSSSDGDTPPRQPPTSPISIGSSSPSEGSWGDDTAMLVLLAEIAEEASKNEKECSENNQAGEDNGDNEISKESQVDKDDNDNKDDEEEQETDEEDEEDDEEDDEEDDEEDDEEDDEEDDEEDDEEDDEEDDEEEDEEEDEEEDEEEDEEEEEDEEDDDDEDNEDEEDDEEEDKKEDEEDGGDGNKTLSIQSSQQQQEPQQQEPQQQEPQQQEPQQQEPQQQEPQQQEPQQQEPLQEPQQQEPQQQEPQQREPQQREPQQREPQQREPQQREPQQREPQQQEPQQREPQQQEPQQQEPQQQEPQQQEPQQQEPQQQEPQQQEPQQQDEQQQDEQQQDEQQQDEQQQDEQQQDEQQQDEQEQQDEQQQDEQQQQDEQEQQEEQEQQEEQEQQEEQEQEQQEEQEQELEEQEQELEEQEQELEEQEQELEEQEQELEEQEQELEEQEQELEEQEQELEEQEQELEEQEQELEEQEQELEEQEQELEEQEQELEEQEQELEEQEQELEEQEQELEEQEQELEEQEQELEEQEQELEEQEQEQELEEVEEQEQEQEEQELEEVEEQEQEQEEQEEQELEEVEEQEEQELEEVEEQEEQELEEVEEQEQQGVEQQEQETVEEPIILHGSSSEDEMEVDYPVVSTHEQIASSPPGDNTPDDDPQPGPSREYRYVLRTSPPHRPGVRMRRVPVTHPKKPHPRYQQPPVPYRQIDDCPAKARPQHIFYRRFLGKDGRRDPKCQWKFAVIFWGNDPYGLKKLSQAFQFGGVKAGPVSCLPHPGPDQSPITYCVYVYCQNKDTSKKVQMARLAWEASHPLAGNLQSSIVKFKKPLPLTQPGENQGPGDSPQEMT
Sequence of Intestinal-type alkaline phosphatase (Mus musculus, UniProt P24822) (P24822 whole entry): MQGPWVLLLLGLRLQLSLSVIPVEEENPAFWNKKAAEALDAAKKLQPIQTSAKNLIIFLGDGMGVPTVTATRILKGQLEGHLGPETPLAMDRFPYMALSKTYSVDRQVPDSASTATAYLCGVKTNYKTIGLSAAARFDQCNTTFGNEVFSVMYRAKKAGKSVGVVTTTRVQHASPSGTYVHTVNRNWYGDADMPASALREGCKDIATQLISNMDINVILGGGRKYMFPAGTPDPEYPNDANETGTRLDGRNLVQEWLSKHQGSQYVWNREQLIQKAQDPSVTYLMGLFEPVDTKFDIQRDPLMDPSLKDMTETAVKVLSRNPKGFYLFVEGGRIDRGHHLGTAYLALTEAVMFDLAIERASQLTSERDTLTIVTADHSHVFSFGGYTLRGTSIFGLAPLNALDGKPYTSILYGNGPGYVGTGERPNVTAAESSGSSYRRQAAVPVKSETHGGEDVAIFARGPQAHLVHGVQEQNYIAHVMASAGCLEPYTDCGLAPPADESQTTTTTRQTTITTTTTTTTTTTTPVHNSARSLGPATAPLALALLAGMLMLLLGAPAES
Sequence of Melanin-concentrating hormone receptor 1 (Q99705 whole entry): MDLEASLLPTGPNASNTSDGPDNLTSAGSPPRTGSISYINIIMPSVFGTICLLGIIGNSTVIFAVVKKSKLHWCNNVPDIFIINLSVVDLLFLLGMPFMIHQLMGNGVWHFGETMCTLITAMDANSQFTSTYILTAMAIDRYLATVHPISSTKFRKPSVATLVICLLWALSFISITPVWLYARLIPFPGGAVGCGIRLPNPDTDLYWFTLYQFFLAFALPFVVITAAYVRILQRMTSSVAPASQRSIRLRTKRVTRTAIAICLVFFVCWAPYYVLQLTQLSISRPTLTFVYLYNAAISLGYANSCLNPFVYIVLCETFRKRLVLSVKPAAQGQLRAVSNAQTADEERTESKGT
Sequence of Neuropeptides B/W receptor type 1 (P48145 whole entry): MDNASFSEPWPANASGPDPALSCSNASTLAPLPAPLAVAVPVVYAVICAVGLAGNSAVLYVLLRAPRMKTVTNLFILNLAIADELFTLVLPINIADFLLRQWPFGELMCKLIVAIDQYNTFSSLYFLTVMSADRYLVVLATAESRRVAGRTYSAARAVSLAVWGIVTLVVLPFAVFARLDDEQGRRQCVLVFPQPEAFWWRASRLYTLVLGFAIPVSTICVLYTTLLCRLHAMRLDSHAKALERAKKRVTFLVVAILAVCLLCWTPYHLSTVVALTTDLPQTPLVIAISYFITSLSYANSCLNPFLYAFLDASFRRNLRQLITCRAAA
Sequence of Bifunctional protein GlmU (P9WMN3 whole entry): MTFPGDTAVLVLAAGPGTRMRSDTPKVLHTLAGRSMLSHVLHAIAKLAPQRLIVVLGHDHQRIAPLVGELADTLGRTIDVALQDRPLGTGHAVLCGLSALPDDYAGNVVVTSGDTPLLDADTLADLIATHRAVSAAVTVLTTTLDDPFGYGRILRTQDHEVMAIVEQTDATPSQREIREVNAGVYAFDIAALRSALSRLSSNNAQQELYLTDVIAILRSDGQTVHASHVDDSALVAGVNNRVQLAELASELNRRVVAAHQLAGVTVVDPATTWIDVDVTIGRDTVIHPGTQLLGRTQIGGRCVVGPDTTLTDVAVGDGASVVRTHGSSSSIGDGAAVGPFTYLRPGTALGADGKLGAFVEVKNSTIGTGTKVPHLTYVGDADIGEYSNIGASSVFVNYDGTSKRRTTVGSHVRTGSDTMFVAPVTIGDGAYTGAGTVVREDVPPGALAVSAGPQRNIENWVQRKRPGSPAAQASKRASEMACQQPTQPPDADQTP
Sequence of Intestinal-type alkaline phosphatase (Homo sapiens, UniProt P09923) (P09923 whole entry): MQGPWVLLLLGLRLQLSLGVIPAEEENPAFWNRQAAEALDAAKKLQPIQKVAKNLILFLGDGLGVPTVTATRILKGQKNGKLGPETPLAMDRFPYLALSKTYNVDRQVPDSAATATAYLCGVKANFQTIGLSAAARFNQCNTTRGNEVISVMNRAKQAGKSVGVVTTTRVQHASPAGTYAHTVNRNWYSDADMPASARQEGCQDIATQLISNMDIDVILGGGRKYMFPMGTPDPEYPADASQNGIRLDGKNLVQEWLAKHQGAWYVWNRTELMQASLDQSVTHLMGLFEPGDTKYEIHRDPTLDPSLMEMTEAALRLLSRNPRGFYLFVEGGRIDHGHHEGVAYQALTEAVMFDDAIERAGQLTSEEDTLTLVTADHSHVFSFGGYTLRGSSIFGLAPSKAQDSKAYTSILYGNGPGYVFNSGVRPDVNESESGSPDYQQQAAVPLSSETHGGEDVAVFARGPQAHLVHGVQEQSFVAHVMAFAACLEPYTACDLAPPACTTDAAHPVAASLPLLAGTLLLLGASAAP

For `Cc1cccc(-c2oc3ccc(-c4ccc5c(c4)OCO5)cc3c2C#Cc2cncn2C)c1`, the CC50 [1] was > 40 µM (active), the CC50 [2] was 85.2 µM (active) and the CC50 [3] was > 93 µM (active). The CC50 [4] was > 44.8 µM (active), the CC50 [5] was > 50 µM (active) and the CC50 [6] was 43.8 µM (active). For the same compound, the AC50 [7] was 5.28 µM (active), the CC50 [8] was 42.3 µM (active) and the AC50 [9] was 21.8 µM (active). For the same compound, the CC50 [10] was > 50 µM (active), the CC50 [11] was 34.6 µM (active) and the CC50 [12] was > 50 µM (active).

With `N#CC(c1ccc(F)cc1)c1c(Br)cnn(Cc2cccc3ccccc23)c1=O` (configuration not stated) the IC50 [13] was 0.24 µM (active) and the IC50 [14] was 0.24 µM (active).

For `COc1ccc(C2=NOC(C(=O)O)C2)cc1` (configuration not stated), the EC50 [15] was > 100 µM (inactive) and the EC50 [16] was > 100 µM (inactive).

For `CC(C(=O)O)N1C(=O)/C(=C/C=C/c2ccco2)SC1=S` (configuration not stated), the IC50 [17] was 0.884 µM (active), the AC50 (ORF 73) was 45.6 µM (active) and the IC50 (Ephrin type-A receptor 4) was 2.79 µM (active). For the same compound, the IC50 [18] was 61.4 µM (active), the IC50 (Troponin, cardiac muscle) was > 71.5 µM (inactive) and the IC50 [19] was > 122 µM (inactive). For the same compound, the IC50 [20] was 1.07 µM (active), the IC50 [21] was > 100 µM (inactive) and the AC50 [22] was 1.63 µM (active). The IC50 [23] was > 100 µM (inactive), the IC50 [24] was 1.19 µM (active) and the IC50 [25] was > 122 µM (inactive). The IC50 [26] was > 20 µM (inactive), the IC50 [27] was 2.08 µM (active) and the IC50 [28] was 10 µM (active). The IC50 [29] was 1.21 µM (active).
